In general, logP refers to the decadic logarithm of the partition coefficient of the neutral form, usually between octanol and water. A higher logP goes with a more lipophilic compound. What is called logD is lipophilicity at a set pH, counting ionised and neutral species. A higher logD goes with higher lipophilicity.

A short description of data set [1]: method code SF, from DOI: 10.1021/jm00262a020, PMID: 4716184.
Data set [2] is described as follows: method code SF, from DOI: 10.1021/jm00088a007, PMID: 1588555. Particulars: pH 7.4.
Data set [3] can be described thus: method code SF-HPLC, from DOI: 10.1016/0378-5173(91)90200-8. Particulars: pH 7.4.
Data set [4] can be described thus: method code SF-HPLC, from DOI: 10.1021/js9504200, PMID: 8742941. Particulars: pH 7.4.
The nature of data set [5]: method code SF-HPLC, from DOI: 10.1023/a:1016059008464, PMID: 8899834.
The nature of data set [6]: method code SF, from DOI: 10.3139/113.110173.
Data set [7] can be described thus: method code SF-AS, from DOI: 10.1016/s0960-894x(99)00527-2, PMID: 10571171. Particulars: pH 7.0.
Data set [8] is described as follows: method code SF-HPLC, from DOI: 10.1002/jps.2600830805, PMID: 7983590. The settings on record: pH 12.2.
Test in data set [9]: not given
This is another data set of the same source.

Data set [10] is described as follows: method code SF, from DOI: 10.1021/jm00079a001, PMID: 1732531. The settings on record: pH 7.4.
Test in data set [11]: not given
This is another data set of the same source.

The conditions of data set [12]: pH 6.5.
Data set [13] is described as follows: method code SF-HPLC, from DOI: 10.1002/jccs.199500138.
Test in data set [14]: not given
This is another data set of the same source.

A short description of data set [15]: method code SF-HPLC, from DOI: 10.1016/j.ijpharm.2013.10.039, PMID: 24184034. Particulars: pH 7.0.
Test in data set [16]: not given
This is another data set of the same source.

Data set [17] can be described thus: method code SF, from Moerlein, M.; Dischino, D.; Raymond, N.; Weitl, L.; Welch, J. (1982). Factors affecting the cerebral uptake of gallium complexes. J Labelled Comp Radiopharm, 19(11-12)1421-1422. The settings on record: pH 7.0.
For data set [18] the following is noted: pH 6.5. This is another data set of the same source.
Test in data set [19]: not given
The source holds these as a separate data set.

Data set [20] can be described thus: method code SF-FL, from DOI: 10.1021/acs.jmedchem.5b00420, PMID: 26263187.

Regarding `CC[C@@H](C(=O)[C@@H](C)[C@@H](O)[C@H](C)CCc1ccc(C)c(O)c1C(=O)O)[C@H]1O[C@](CC)([C@H]2CC[C@](O)(CC)[C@H](C)O2)C[C@@H]1C`, in data set [1], the logP is 2.85.
Compound `CCCC[C@H](O[C@@H](Cc1ccccc1)C(=O)N1CCC(OCOC)CC1)C(=O)NC(CC1CCCCC1)C(O)CC(C(=O)NCCCN1CCOCC1)C(C)C` (stereo partly specified) came in with a logD in data set [2] of 4.3.
As to `CCOc1ccc(N2CCN(CC(O)CC(Cc3ccccc3)C(=O)NC3c4ccccc4CC3O)C(C(=O)NC(C)(C)C)C2)cn1` (stereo unspecified), the logP is 3.62.
In data set [3], `CCC(C(=O)OCc1ccc(COC(=O)C(CC)C(COC(=O)C2CC2)Cc2cncn2C)cc1)C(COC(=O)C1CC1)Cc1cncn1C` (stereo unspecified) showed a logD of 4.2.
For `O=C(OCCCCCC1CCSS1)c1cc(=O)c2c(OCC(O)COc3cccc4oc(C(=O)OCCCCCC5CCSS5)cc(=O)c34)cccc2o1` (stereo unspecified), the logD in [4] turned out to be 2.87.
Turning to `CC(C)CCC[C@@H](C)[C@H]1CC[C@H]2[C@@H]3CC[C@H]4C[C@@H](CCC=C(c5cc(Cl)c(O)c(C(=O)O)c5)c5cc(Cl)c(O)c(C(=O)O)c5)CC[C@]4(C)[C@H]3CC[C@]12C`, the logP in [5] came out at 6.94.
Compound `CCCCCCCCCCCOCCOCCOCCOCCOCCOCCOCCOCCOCCOCCOCCOCCOCCOCCOCCOCCOCCOCCOCCOCCOCCOCCOCCOCCOCCOCCOCCOCCO` had a logP in data set [6] of 0.31.
For the compound `O=C(NCCCC(CO)(CCCNC(=O)c1ccc2cccnc2c1O)CCCNC(=O)c1ccc2cccnc2c1O)c1ccc2cccnc2c1O`, the logD in data set [7] amounted to 1.2.
In the case of `CCCCC(NC(C)=O)C(=O)NC1NCCCCC(C(N)=O)NC(=O)C(Cc2c[nH]c3ccccc23)NC(=O)C(CCCC(=N)N)NC(=O)C(Cc2ccccc2)NC(=O)C(Cc2cnc[nH]2)NC1=O` (stereo unspecified), the logD in data set [8] is 1.1.
Compound `COC1C(OC(C)=O)CC(=O)OC(C)CC=CC=CC(O)C(C)CC(CC=O)C1OC1OC(C)C(OC2C[C@@](C)(O)C(OC(=O)CC(C)C)C(C)O2)C(N(C)C)C1O` (stereo partly specified) had a logP in [9] of 2.39.
In [10], `C=CC[C@H](NC(=O)[C@@H](Cc1ccccc1)NS(=O)(=O)N1CCN(C)CC1)C(=O)NC(CC1CCCCC1)C(=O)C(F)(F)C(=O)NCCN1CCOCC1` (stereo partly specified) showed a logD of 2.73.
As to `COc1cc(C)c(S(=O)(=O)NC(CC(=O)NC2OC(CO)C(O)C(O)C2NC(C)=O)C(=O)NC(Cc2ccc(C(=N)N)cc2)C(=O)N2CCCCC2)c(C)c1C` (stereo unspecified), the logP in data set [11] was -1.5.
On to `CCN1CC(C(O)C(CC2CCCCC2)NC(=O)C(Cc2cc[nH]n2)NC(=O)C(CC(=O)N2CCOCC2)Cc2ccccc2)OC1=O` (stereo unspecified), for which the logD in data set [12] turned out to be 2.52.
The compound `CC(=O)O[C@@H]1CC[C@]2(C)C3=CC[C@]4(C)[C@@H]([C@H](C)CC/C=C(\C)C(=O)O)C[C@@H](OC(C)=O)[C@@]4(C)C3=CC[C@H]2C1(C)C` returned a logP in data set [13] of 2.74.
With `CC(C)Cc1ccc(C(Nc2cccc(C(=O)c3cn(CCCC(=O)O)c4ccccc34)c2)c2ccc(CC(C)C)cc2)cc1`, in data set [14], the logP is 3.
In turn, `CC(=O)O[C@@H]1C(=O)[C@]23C[C@H]2C[C@H]2OC[C@@]2(OC(C)=O)[C@H]3[C@H](OC(=O)c2ccccc2)[C@]2(O)C[C@H](OC(=O)[C@H](O)[C@@H](NC(=O)OC(C)(C)C)c3ccccc3)C(C)=C1C2(C)C` yielded a logD in data set [15] of 2.06.
In [16], `Nc1cccc(CN2C(=O)N(c3cccc(C(=O)Nc4cnccn4)c3)C(Cc3ccccc3)C(O)C(O)C2Cc2ccccc2)c1` (stereo unspecified) displayed a logP of 3.77.
On to `CCCCCCN(CCCCN(CCCN(CCCCCC)C(=O)c1cccc(O)c1O)C(=O)c1cccc(O)c1O)C(=O)c1cccc(O)c1O`, for which the pH-dependent lipophilicity (logD) in data set [17] was -1.52.
For `CCCCC(OC(Cc1ccccc1)C(=O)N1CCC(OCOC)CC1)C(=O)NC(CC1CCCCC1)C(O)CC(C(=O)NCc1nn[nH]n1)C(C)C` (stereo unspecified), in [18], the logD was found to be 2.9.
In the case of `Cc1ccccc1NC(=O)Nc1ccc(CC(=O)N[C@@H](CCCCNC(=O)/C=C/c2cccnc2)C(=O)N[C@@H](CCCC(=O)O)C(=O)NC2(C(N)=O)CCCCC2)cc1`, the logP in [19] came out at 3.26.
In turn, `COc1cccc2c1C(=O)c1c(O)c3c(c(O)c1C2=O)CC(O)(C(=O)CO)CC3OC1CC(NC(=O)C2CCC(CN3C(=O)CC(SCCN)C3=O)CC2)C(O)C(C)O1` (stereo unspecified) returned a logP in data set [20] of -0.02.

(Values after the SangsterLogP compilation.)
